Legend:
[1] = in vivo; design: species or system CDF1 hybrid mice; conditions: mouse, ip, 50 mg/kg
Excerpt: The compounds of the invention benefit from a good tolerance and a weak toxicity.
Thus the administration, to healthy CDF1 hybrid mice, in a single injection by intraperitoneal route, of the compounds under test, has enabled it to be established that the product is perfectly tolerated at a high dosage since the survival rate of the animals of the experiment was 100 out of 100 thirteen days after administration.

[2] = in vivo; design: species or system female CDF1 hybrid mice; conditions: mouse, iv
Procedure: In addition the administration, to healthy female CDF1 hybrid mice, in a single injection by intravenous route with a perfusor, lasting 4 minutes, of the compounds under test in solution in physiological serum at a rate of 0.1 ml of solution per 10 g weight of the animals has enabled it to be established that the compounds are also well tolerated at a high dosage in these conditions.

[3] = tested on: leukemia P 388; test: Test of leukemia P 388; IP/IP, D1-5; format: in vivo, CDF1 hybrid mice; conditions: D1-D5; for Number of survivors: day D30; for T/C %: survival time
Method in brief: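 CDF1 hybrid mice received 10^6 P 388 cells intraperitoneally, then compound in distilled water by intraperitoneal route daily D1-D5, 10 mice per group, 5-fluorouracil as positive control. Activity judged as T/C survival time versus untreated controls, survivors counted at D30; T/C ≤85% or day 5 minus day 1 weight change ≤ −4 g counted as toxic.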

[4] = tested on: leukemia P388; test: Test for leukemia P388, IP/IP, D1; format: in vivo, CDF1 hybrid mice; conditions: for Number of survivors: day D30; for T/C %: survival time
Method in brief: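 CDF1 hybrid mice inoculated i.p. on D0 with 10^6 P388 leukemia cells; compound in distilled water given i.p. once on D1, 10 mice per group. Activity as increase in survival time versus untreated controls (T/C); survivors counted on D30. 5-fluorouracil positive control under same conditions.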

[5] = tested on: melanoma B 16; test: Test for melanoma B 16; format: in vivo, BDF1 hybrid mice; conditions: D1-D9; for Number of survivors: day D60; for T/C %: survival time
Method in brief: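 BDF1 mice inoculated i.p. with 0.5 ml B16 melanoma homogenate (1 g tumour in 10 ml physiological serum); compound given i.p. daily D1–D9, Cis-platine positive control under same conditions. Surviving animals counted on D60; activity as survival increase vs untreated controls (T/C), toxicity if T/C ≤85%.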

What does the source list for `CCN(CC)CCCNc1ncc(C)c2[nH]c3ccc(O)cc3c12` [Derivative No. 7, 1-(diethylaminopropylamino)-8-hydroxy-4-methyl-5H-pyrido[4,3-b]indole]?
survival at 312 h [1]: 100%; survival at 192 h ([2]; 25 mg/kg): 100%; survival at 192 h ([2]; 30 mg/kg): 100%; Median day of survival ([3]; 0.625 mg/kg IP): 14.3 days; Variation by weight (g) ([3]; 0.625 mg/kg IP): +0.3 g; Number of survivors ([3]; 0.625 mg/kg IP): 0/10; T/C % ([3]; 0.625 mg/kg IP): 127%; Median day of survival ([3]; 1.25 mg/kg IP): 17.25 days; Variation by weight (g) ([3]; 1.25 mg/kg IP): +0.3 g; Number of survivors ([3]; 1.25 mg/kg IP): 0/10; T/C % ([3]; 1.25 mg/kg IP): 153%; Median day of survival ([3]; 2.5 mg/kg IP): 18.25 days; Variation by weight (g) ([3]; 2.5 mg/kg IP): +0.1 g; Number of survivors ([3]; 2.5 mg/kg IP): 0/10; T/C % ([3]; 2.5 mg/kg IP): 162%; Median day of survival ([3]; 5 mg/kg IP): 19.25 days; Variation by weight (g) ([3]; 5 mg/kg IP): +0.3 g; Number of survivors ([3]; 5 mg/kg IP): 0/10; T/C % ([3]; 5 mg/kg IP): 170%; Median day of survival ([3]; 10 mg/kg IP): 20.9 days; Variation by weight ([3]; 10 mg/kg IP): -0.2 g; Number of survivors ([3]; 10 mg/kg IP): 0/10; T/C % ([3]; 10 mg/kg IP): 185%; Median day of survival ([3]; 15 mg/kg IP): 23.55 days; Variation by weight (g) ([3]; 15 mg/kg IP): +1.6 g; Number of survivors ([3]; 15 mg/kg IP): 3/10; T/C % ([3]; 15 mg/kg IP): 208%; Median day of survival ([3]; 20 mg/kg IP): 27.0 days; Variation by weight ([3]; 20 mg/kg IP): -1.1 g; Number of survivors ([3]; 20 mg/kg IP): 1/10; T/C % ([3]; 20 mg/kg IP): 238%; Median day of survival ([3]; 30 mg/kg IP): 9.25 days; Variation by weight ([3]; 30 mg/kg IP): 0.0 g; Number of survivors ([3]; 30 mg/kg IP): 0/10; T/C % ([3]; 30 mg/kg IP): 81%; Median day of survival ([4]; 10 mg/kg IP): 15.1 days; Variation by weight (g) ([4]; 10 mg/kg IP): +1.2 g; Number of survivors ([4]; 10 mg/kg IP): 0/10; T/C % ([4]; 10 mg/kg IP): 129%; Median day of survival ([4]; 20 mg/kg IP): 16.25 days; Variation by weight (g) ([4]; 20 mg/kg IP): +0.2 g; Number of survivors ([4]; 20 mg/kg IP): 0/10; T/C % ([4]; 20 mg/kg IP): 139%; Median day of survival ([4]; 40 mg/kg IP): 15.9 days; Variation by weight ([4]; 40 mg/kg IP): -0.2 g; Number of survivors ([4]; 40 mg/kg IP): 0/10; T/C % ([4]; 40 mg/kg IP): 136%; Median day of survival ([4]; 80 mg/kg IP): 2.3 days; Variation by weight ([4]; 80 mg/kg IP): -1.7 g; Number of survivors ([4]; 80 mg/kg IP): 0/10; T/C % ([4]; 80 mg/kg IP): 20%; Median day of survival ([5]; 2.5 mg/kg IP): 34 days; Variation by weight (g) ([5]; 2.5 mg/kg IP): +3.6 g; Number of survivors ([5]; 2.5 mg/kg IP): 0/10; T/C % ([5]; 2.5 mg/kg IP): 124%; Median day of survival ([5]; 5 mg/kg IP): 48 days; Variation by weight ([5]; 5 mg/kg IP): -0.1 g; Number of survivors ([5]; 5 mg/kg IP): 0/10; T/C % ([5]; 5 mg/kg IP): 174%; Median day of survival ([5]; 10 mg/kg IP): 56.25 days; Variation by weight (g) ([5]; 10 mg/kg IP): +1.6 g; Number of survivors ([5]; 10 mg/kg IP): 4/10; T/C % ([5]; 10 mg/kg IP): 205%; Median day of survival ([5]; 20 mg/kg IP): 58 days; Variation by weight ([5]; 20 mg/kg IP): -0.8 g; Number of survivors ([5]; 20 mg/kg IP): 5/10; T/C % ([5]; 20 mg/kg IP): 211%; Median day of survival ([5]; 30 mg/kg IP): 9.0 days; Variation by weight ([5]; 30 mg/kg IP): -1.0 g; Number of survivors ([5]; 30 mg/kg IP): 0/10; T/C % ([5]; 30 mg/kg IP): 33%

Source: patent US4835160A, “Derivatives of pyridoindole, having anti-tumor properties” (Sanofi, priority 1986, dated 1989)
